Our source for the EC50 and Emax values is patent publication US12281149B2, “Modulators of G-protein coupled receptors” (priority 2021, dated 2025).

By EC50 is commonly meant the concentration giving half of the maximal effect. A word on the Emax: it is the greatest response seen or fitted, relative to the assay's reference.

What all share (type): cell-based
The target of assay [1] is T1, GIP receptor (Homo sapiens, UniProt P48546).
T1 sequence (P48546 22-466): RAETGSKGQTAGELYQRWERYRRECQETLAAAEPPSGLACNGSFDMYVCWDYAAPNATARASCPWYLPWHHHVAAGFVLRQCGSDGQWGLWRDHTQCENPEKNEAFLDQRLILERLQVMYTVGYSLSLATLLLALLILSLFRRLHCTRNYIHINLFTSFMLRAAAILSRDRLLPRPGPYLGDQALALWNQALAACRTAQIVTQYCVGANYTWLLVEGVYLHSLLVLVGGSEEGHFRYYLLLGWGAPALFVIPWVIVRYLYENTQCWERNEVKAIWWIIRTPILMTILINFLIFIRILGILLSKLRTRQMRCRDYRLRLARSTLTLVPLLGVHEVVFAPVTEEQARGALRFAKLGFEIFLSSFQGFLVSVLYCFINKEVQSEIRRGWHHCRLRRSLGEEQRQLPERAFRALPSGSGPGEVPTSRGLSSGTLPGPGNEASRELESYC
The assay can be described thus: PathHunter β-arrestin assay, GIP receptor. The conditions noted are these: β-arrestin-2 recruitment, PathHunter CHO-K1 GIPR β-Arrestin Cell Line, 90 min at 37° C.; normalized to GIP; read-out: GIPR β Arrestin EC50. More on the design: host or cells: PathHunter CHO-K1 GIPR β-Arrestin Cell Line.
Procedure: (§1) β-arrestin-2 recruitment for GLP-1 receptor or GIP receptor was measured using the DiscoverX PathHunter Detection Kit and PathHunter® CHO-K1 GLPIR β-Arrestin Cell Line or PathHunter® CHO-K1 GIPR β-Arrestin Cell Line, respectively). Briefly, cells were grown in Ham's F12 Nutrient Mix with 10% FBS and lifted with Cell dissociation buffer, Enzyme free, PBS based (ThermoFisher). Harvested cells were pelleted and resuspended in Assay Complete Cell Plating Reagent 2 and 5000 cells per well were plated in tissue culture treated 384-well small volume white assay plates. Plates were then incubated at 37° C. and 5% CO2 overnight. The media was then replaced with fresh Assay Complete Cell Plating Reagent 2. Cells were then treated with 10 nl compound in DMSO using an ECHO 550 acoustic dispenser (Labcyte) in a 20-point dose response format in duplicate for 90 min at 37° C. The assay was then completed according to the manufacturer's instructions. Luminescence was measured using a Perkin Elmer Envision plate reader. Raw data was normalized to the maximum signal from GLP-1 or GIP (high) and DMSO (low). Dose response curves were analyzed using GraphPad Prism 9.0.

For assay [2], the target named is T2, GLP-1 receptor (Homo sapiens, UniProt P43220). The assay can be described thus: HitHunter cAMP assay, GLP-1 receptor. The conditions noted are these: for EC50: CHO cells stably expressing human GLP-1 receptor, cAMP accumulation, 30 min, read-out: EC50 GLP-1R; for Emax: CHO cells, cAMP, normalized to maximum signal from GLP-1 (high) and DMSO (low), read-out: Emax GLP-1R. (In general: Changes in cAMP serve as a functional read-out for many G protein-coupled receptors.)
T2 sequence (P43220 24-463): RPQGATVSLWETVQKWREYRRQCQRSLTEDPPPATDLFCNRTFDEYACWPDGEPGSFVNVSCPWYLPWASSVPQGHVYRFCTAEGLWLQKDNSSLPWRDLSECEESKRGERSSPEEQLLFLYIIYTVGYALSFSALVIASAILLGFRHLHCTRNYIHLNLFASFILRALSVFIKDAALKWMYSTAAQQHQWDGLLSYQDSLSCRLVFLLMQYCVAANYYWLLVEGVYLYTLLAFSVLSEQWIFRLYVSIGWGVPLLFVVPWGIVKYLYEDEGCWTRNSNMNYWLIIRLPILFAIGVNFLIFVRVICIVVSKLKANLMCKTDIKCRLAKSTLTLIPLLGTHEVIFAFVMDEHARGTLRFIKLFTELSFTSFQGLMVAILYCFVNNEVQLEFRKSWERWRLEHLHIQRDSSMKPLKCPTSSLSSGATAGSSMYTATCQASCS

Assay [3] has as its target T1, GIP receptor. In words: HitHunter cAMP assay, GIP receptor. The conditions noted are these: for EC50: CHO cells stably expressing GIP receptor, cAMP accumulation, 30 min, read-out: EC50 GIP-1R; for Emax: CHO cells, cAMP, normalized to maximum signal from GIP (high) and DMSO (low), read-out: Emax GIP-1R.
Assay [4] concerns the target T2, GLP-1 receptor. The assay can be described thus: PathHunter β-arrestin assay, GLP-1 receptor. On the set-up: host or cells: PathHunter CHO-K1 GLP1R β-Arrestin Cell Line. The conditions noted are these: β-arrestin-2 recruitment, PathHunter CHO-K1 GLP1R β-Arrestin Cell Line, 90 min at 37° C.; normalized to GLP-1; read-out: GLP-1R β Arrestin EC50. In general terms: Activated receptors often draw arrestin, which recruitment assays turn into a signal.
Procedure: as §1

Molecules are shown by their SMILES. *1 amine or outer side, *2 acyl side, *3 side chain or, on linkers, in order; H or OH if unused. Where a SMILES comes first, the peptide text is derived from it. Side-chain parts run from the residue outwards. [ ]: non-standard residue; d: D form. The star is where a group is joined. Isobutyryl(2-(3-CN-5-F-Ph)) = CC(C)(C(=O)*)c1cc(F)cc(C#N)c1; C20 diacid = O=C(O)CCCCCCCCCCCCCCCCCCC(=O)*; γGlu = O=C(O)[C@H](CCC(=O)[*:2])N[*:1]; X32 = CC(C)(CN[*:1])C(=O)[*:2]; X4 = O=C(C(F)(F)c1ccc(F)cc1)*; Dap = NC[C@H](N)C(=O)O; AEEA = NCCOCCOCC(=O)O; Aib = CC(C)(N)C(=O)O; βAla = NCCC(=O)O

Take `CC[C@H](C)[C@H](NC(=O)[C@H](CC(C)C)NC(=O)[C@H](Cc1c[nH]c2ccccc12)NC(=O)[C@H](CCC(N)=O)NC(=O)[C@@H](NC(=O)[C@H](Cc1ccccc1)NC(=O)[C@H](C)NC(=O)[C@H](CCCCNC(=O)COCCOCCNC(=O)COCCOCCNC(=O)CC[C@H](NC(=O)CCCCCCCCCCCCCCCCCCC(=O)O)C(=O)O)NC(=O)[C@H](CCC(N)=O)NC(=O)[C@H](C)NC(=O)[C@@H](NC(=O)[C@H](CCCCN)NC(=O)[C@H](CC(=O)O)NC(=O)[C@H](CC(C)C)NC(=O)C(C)(C)NC(=O)[C@@H](NC(=O)[C@H](CO)NC(=O)[C@H](Cc1ccc(O)cc1)NC(=O)[C@H](CC(=O)O)NC(=O)[C@H](CO)NC(=O)[C@@H](NC(=O)[C@H](Cc1ccccc1)NC(=O)[C@@H](NC(=O)CNC(=O)[C@H](CCC(=O)O)NC(=O)CCNC(=O)C(F)(F)c1ccc(F)cc1)[C@@H](C)O)[C@@H](C)O)[C@@H](C)CC)[C@@H](C)CC)C(C)C)C(=O)N[C@@H](C)C(=O)NCC(=O)NCC(=O)N1CCC[C@H]1C(=O)N[C@@H](CO)C(=O)N[C@@H](CO)C(=O)NCC(=O)N[C@@H](C)C(=O)N1CCC[C@H]1C(=O)N1CCC[C@H]1C(=O)N1CCC[C@H]1C(=O)N[C@@H](CO)C(N)=O` [Compound 188] ({X4-βAla}-EGTFTSDYSI[Aib]LDKIAQK([AEEA-AEEA-γGlu-C20 diacid])AFVQWLIAGGPSSGAPPPS-NH2): the EC50 is above 1 µM at GIP receptor [1], 0.0001 to 0.001 µM at GLP-1 receptor [2], 0.01 to 0.1 µM at GIP receptor [3] and above 1 µM on GLP-1 receptor [4]. The Emax on GLP-1 receptor [2] turned out to be 91%; on GIP receptor [3] it was 79%.

Turning to `CC[C@H](C)[C@H](NC(=O)[C@H](CCCCN)NC(=O)[C@H](CC(=O)O)NC(=O)[C@H](CC(C)C)NC(=O)[C@H](Cc1ccc(O)cc1)NC(=O)[C@@H](NC(=O)[C@H](CO)NC(=O)[C@H](Cc1ccc(O)cc1)NC(=O)[C@H](CC(=O)O)NC(=O)[C@H](CO)NC(=O)[C@@H](NC(=O)[C@H](Cc1ccccc1)NC(=O)[C@@H](NC(=O)CNC(=O)[C@H](CCC(=O)O)NC(=O)CCNC(=O)C(C)(C)c1cc(F)cc(C#N)c1)[C@@H](C)O)[C@@H](C)O)[C@@H](C)CC)C(=O)N[C@@H](C)C(=O)N[C@@H](CCC(N)=O)C(=O)N[C@@H](CCCCNC(=O)COCCOCCNC(=O)COCCOCCNC(=O)CC[C@H](NC(=O)CCCCCCCCCCCCCCCCCCC(=O)O)C(=O)O)C(=O)N[C@@H](C)C(=O)N[C@@H](Cc1ccccc1)C(=O)N[C@H](C(=O)N[C@@H](CCC(N)=O)C(=O)N[C@@H](Cc1c[nH]c2ccccc12)C(=O)N[C@@H](CC(C)C)C(=O)N[C@H](C(=O)N[C@@H](C)C(=O)NCC(=O)NCC(=O)N1CCC[C@H]1C(=O)N[C@@H](CO)C(=O)N[C@@H](CO)C(=O)NCC(=O)N[C@@H](C)C(=O)N1CCC[C@H]1C(=O)N1CCC[C@H]1C(=O)N1CCC[C@H]1C(=O)N[C@@H](CO)C(N)=O)[C@@H](C)CC)C(C)C` [Compound 189] ({Isobutyryl(2-(3-CN-5-F-Ph))-βAla}-EGTFTSDYSIYLDKIAQK([AEEA-AEEA-γGlu-C20 diacid])AFVQWLIAGGPSSGAPPPS-NH2), the EC50 on GIP receptor [1] was above 1 µM; on GLP-1 receptor [2], 0.0001 to 0.001 µM; on GIP receptor [3] it was 0.01 to 0.1 µM; on GLP-1 receptor [4], above 1 µM. Moreover, the Emax at GLP-1 receptor [2] turned out to be 95%; on GIP receptor [3] it was 93%.

With `CC[C@H](C)[C@H](NC(=O)[C@H](CCCCN)NC(=O)[C@H](CC(=O)O)NC(=O)[C@H](CC(C)C)NC(=O)C(C)(C)NC(=O)[C@@H](NC(=O)[C@H](CO)NC(=O)[C@H](Cc1ccc(O)cc1)NC(=O)[C@H](CC(=O)O)NC(=O)[C@H](CO)NC(=O)[C@@H](NC(=O)[C@H](Cc1ccccc1)NC(=O)[C@@H](NC(=O)CNC(=O)[C@H](CCC(=O)O)NC(=O)CCNC(=O)C(C)(C)c1cc(F)cc(C#N)c1)[C@@H](C)O)[C@@H](C)O)[C@@H](C)CC)C(=O)N[C@@H](C)C(=O)N[C@@H](CCC(N)=O)C(=O)N[C@@H](CCCCNC(=O)COCCOCCNC(=O)COCCOCCNC(=O)CC[C@H](NC(=O)CCCCCCCCCCCCCCCCCCC(=O)O)C(=O)O)C(=O)N[C@@H](C)C(=O)N[C@@H](Cc1ccccc1)C(=O)N[C@H](C(=O)N[C@@H](CCC(N)=O)C(=O)N[C@@H](Cc1c[nH]c2ccccc12)C(=O)N[C@@H](CC(C)C)C(=O)N[C@@H](CC(C)C)C(=O)N[C@@H](C)C(=O)NCC(=O)NCC(=O)N1CCC[C@H]1C(=O)N[C@@H](CO)C(=O)N[C@@H](CO)C(=O)NCC(=O)N[C@@H](C)C(=O)N1CCC[C@H]1C(=O)N1CCC[C@H]1C(=O)N1CCC[C@H]1C(=O)N[C@@H](CO)C(N)=O)C(C)C` [Compound 190] ({Isobutyryl(2-(3-CN-5-F-Ph))-βAla}-EGTFTSDYSI[Aib]LDKIAQK([AEEA-AEEA-γGlu-C20 diacid])AFVQWLLAGGPSSGAPPPS-NH2), the EC50 on GIP receptor [1] was above 1 µM; at GLP-1 receptor [2], 0.001 to 0.01 µM; at GIP receptor [3], 0.001 to 0.01 µM; on GLP-1 receptor [4], above 1 µM. Moreover, the Emax at GLP-1 receptor [2] amounted to 98%; on GIP receptor [3] it was 100%.

As to `CC[C@H](C)[C@H](NC(=O)[C@H](CC(C)C)NC(=O)[C@H](Cc1c[nH]c2ccccc12)NC(=O)[C@H](CCC(N)=O)NC(=O)[C@@H](NC(=O)[C@H](Cc1ccccc1)NC(=O)[C@H](C)NC(=O)[C@H](CCCCNC(=O)COCCOCCNC(=O)COCCOCCNC(=O)CC[C@H](NC(=O)CCCCCCCCCCCCCCCCCCC(=O)O)C(=O)O)NC(=O)[C@H](CCC(N)=O)NC(=O)[C@H](C)NC(=O)[C@@H](NC(=O)[C@H](CCCCN)NC(=O)[C@H](CC(=O)O)NC(=O)[C@H](CC(C)C)NC(=O)C(C)(C)NC(=O)[C@@H](NC(=O)[C@H](CO)NC(=O)[C@H](Cc1ccc(O)cc1)NC(=O)[C@H](CC(=O)O)NC(=O)[C@H](CO)NC(=O)[C@@H](NC(=O)[C@H](Cc1ccccc1)NC(=O)[C@@H](NC(=O)CNC(=O)[C@H](CCC(=O)O)NC(=O)[C@@H](N)CNC(=O)C(C)(C)c1cc(F)cc(C#N)c1)[C@@H](C)O)[C@@H](C)O)[C@@H](C)CC)[C@@H](C)CC)C(C)C)C(=O)N[C@@H](C)C(=O)NCC(=O)NCC(=O)N1CCC[C@H]1C(=O)N[C@@H](CO)C(=O)N[C@@H](CO)C(=O)NCC(=O)N[C@@H](C)C(=O)N1CCC[C@H]1C(=O)N1CCC[C@H]1C(=O)N1CCC[C@H]1C(=O)N[C@@H](CO)C(N)=O` [Compound 191] (H-[Dap](Isobutyryl(2-(3-CN-5-F-Ph)))EGTFTSDYSI[Aib]LDKIAQK([AEEA-AEEA-γGlu-C20 diacid])AFVQWLIAGGPSSGAPPPS-NH2), the EC50 on GIP receptor [1] is above 1 µM; on GLP-1 receptor [2], 0.001 to 0.01 µM; at GIP receptor [3], 0.01 to 0.1 µM; on GLP-1 receptor [4] it was above 1 µM. The Emax on GLP-1 receptor [2] stood at 92%; at GIP receptor [3], 98%.

`CC[C@H](C)[C@H](NC(=O)[C@H](CC(C)C)NC(=O)[C@H](Cc1c[nH]c2ccccc12)NC(=O)[C@H](CCC(N)=O)NC(=O)[C@@H](NC(=O)[C@H](Cc1ccccc1)NC(=O)[C@H](C)NC(=O)[C@H](CCCCNC(=O)COCCOCCNC(=O)COCCOCCNC(=O)CC[C@H](NC(=O)CCCCCCCCCCCCCCCCCCC(=O)O)C(=O)O)NC(=O)[C@H](CCC(N)=O)NC(=O)[C@H](C)NC(=O)[C@@H](NC(=O)[C@H](CCCCN)NC(=O)[C@H](CC(=O)O)NC(=O)[C@H](CC(C)C)NC(=O)C(C)(C)NC(=O)[C@@H](NC(=O)[C@H](CO)NC(=O)[C@H](Cc1ccc(O)cc1)NC(=O)[C@H](CC(=O)O)NC(=O)[C@H](CO)NC(=O)[C@@H](NC(=O)[C@H](Cc1ccccc1)NC(=O)[C@@H](NC(=O)CNC(=O)[C@H](CCC(=O)O)NC(=O)C(C)(C)CNC(=O)C(C)(C)c1cc(F)cc(C#N)c1)[C@@H](C)O)[C@@H](C)O)[C@@H](C)CC)[C@@H](C)CC)C(C)C)C(=O)N[C@@H](C)C(=O)NCC(=O)NCC(=O)N1CCC[C@H]1C(=O)N[C@@H](CO)C(=O)N[C@@H](CO)C(=O)NCC(=O)N[C@@H](C)C(=O)N1CCC[C@H]1C(=O)N1CCC[C@H]1C(=O)N1CCC[C@H]1C(=O)N[C@@H](CO)C(N)=O` [Compound 192] ({Isobutyryl(2-(3-CN-5-F-Ph))}-[X32]EGTFTSDYSI[Aib]LDKIAQK([AEEA-AEEA-γGlu-C20 diacid])AFVQWLIAGGPSSGAPPPS-NH2): the EC50 was above 1 µM on GIP receptor [1], 0.0001 to 0.001 µM on GLP-1 receptor [2], 0.001 to 0.01 µM at GIP receptor [3] and above 1 µM on GLP-1 receptor [4]. The maximum response (Emax) at GLP-1 receptor [2] was 101%; at GIP receptor [3], 104%.
